For test [1], the target named is T1, HSD17B13 enzyme (Homo sapiens (Human), UniProt Q7Z5P4). Put plainly: NADH detection assay (fluorescence based LTB3 assay) for HSD17B13 activity. The settings on record: substrate 25 µM LTB3, 3 mM NAD+, 125 nM enzyme. It is filed as biochemical. How it is done:
The fluorescence based Leukotriene B3 (LTB3) assay monitors the fluorescence of NADH, which is generated from NAD+ during the dehydrogenation of the substrate LTB3. The reactions were performed in a 384-well plates (Greiner; #655076) in a 20 µl reaction volume containing the following reagents (final concentrations): 25 µM LTB3 (Cayman; #20109); 3 mM NAD^+ (Sigma; #N0623); 125 nM HSD17B13 enzyme (in-house; E. coli expressed His-tagged, purified, soluble protein); 1 M potassium phosphate buffer, pH 7.4; and 1% DMSO. Reactions were initiated by co-addition of NAD+ and enzyme, and monitored for 1 hour at 26.5° C. Generation of NADH was measured as the fluorescence signal (Excitation at 340 nm and Emission at 445 nm) at 1 hour minus the baseline fluorescence at t=0. Fluorescence signals in the absence of LTB3 (negative control values), were subtracted from all values so that the results reflected substrate-dependent production of NADH. NADH standards were included to allow the conversion of relative fluorescence units into rates of enzyme activity. Enzyme activity in the presence of test compounds was expressed as a percentage of the uninhibited enzyme activity, and plotted versus inhibitor concentration. Non-linear regression was performed using a four-parameter logistic model and Microsoft Excel Solver software Ten concentrations of inhibitor were tested in duplicate (in the range of 30 µM - 2.5 nM), and two independent concentration response assays were performed.

Test [2] concerns the target T1, HSD17B13 enzyme. Put plainly: Estrone detection assay (LC/MS, conversion of estradiol to estrone) for HSD17B13 activity. Particulars: substrate 4 µM estradiol, 6 mM NAD+, 30 nM enzyme. It is filed as biochemical. As to the method:
The liquid chromatography/mass spectrometry (LC/MS) estrone detection assay monitors the conversion of estradiol to estrone by HSD17B13. This assay was undertaken in a 96wp format (Eppendorf deep well Plate 96/500) in an 80 µl reaction volume containing: 4 µM of Estradiol (E2; Cayman; #10006315), 6 mM NAD^+ (Sigma; #N0623) and 30 nM HSD17B13 enzyme (in-house; E. coli expressed His-tagged, purified, soluble protein) in a reaction containing 1 M potassium phosphate buffer pH 7.4, with 0.5% vehicle (DMSO). Reactions were incubated for 2 hours at 26.5° C., and estradiol (E2) conversion to estrone (E1) was quantitated by LC-MS/MS based analyte detection for both E2 and E1 using LCMS grade reagents.
Reactions were terminated by the addition of two volumes of acetonitrile (MeCN; LCMS grade; CAS# 75/05/8) containing deuterated (D4)-E1 used as internal standard (Clear Synth; #CS-T-54273; 500 ng/mL final concentration). Samples were applied to pre-prepared Bond Elut-C18 extraction cartridges (3 mL; Agilent; #12102028), washed and eluted in MeCN. Eluates were dried under nitrogen and re-suspended in 60% methanol (LCMS grade methanol; CAS# 67/56/1) before submission for analysis. Aqueous linearity for E2 and E1 were included for quantification.
Analysis of samples was undertaken on a XBridge BEH C18 column (Waters; #186003033) using 0.1% Diethyl Amine in MeCN (mobile phase A; DEA CAS# 109-89-7) and 0.1% Diethyl Amine in milli-Q water (mobile phase B) in a 3 min gradient allowing 25%B. Analytes were detected in negative mode using MRM analysis, with E2 having a RT of 1.85 min and E1 having a RT of 2 min. Activity of the enzyme, in the absence of NAD^+, was used to evaluate specificity of conversion. Enzyme activity in the presence of test samples was expressed as a percentage of the uninhibited enzyme activity, and plotted versus inhibitor concentration. Non-linear regression was performed using a four-parameter logistic model and GraphPad Prism software (GraphPad Software, La Jolla, CA). All assessments were undertaken in duplicate evaluations and pooled during extraction process and subsequently injected as duplicates for LC-MS/MS analysis.

Where only a bound is given, the exact number is not on record here.

In general, IC50 refers to the midpoint of a concentration-inhibition curve.

T1 sequence (Q7Z5P4 20-300): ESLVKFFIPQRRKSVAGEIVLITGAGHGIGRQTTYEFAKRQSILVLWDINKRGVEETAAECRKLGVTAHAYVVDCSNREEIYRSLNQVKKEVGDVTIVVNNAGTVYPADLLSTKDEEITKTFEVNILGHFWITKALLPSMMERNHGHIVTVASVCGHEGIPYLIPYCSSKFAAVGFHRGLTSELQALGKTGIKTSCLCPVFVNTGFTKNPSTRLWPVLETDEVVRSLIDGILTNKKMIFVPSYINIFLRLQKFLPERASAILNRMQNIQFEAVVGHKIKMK

With `O=C(Nc1cccc2ncn(CC3CC3)c(=O)c12)c1ccc(S(=O)(=O)NC(=O)c2ccccc2)c(Cl)c1` [Example 14, 4-(N-benzoylsulfamoyl)-3-chloro-N-(3-(cyclopropylmethyl)-4-oxo-3,4-dihydroquinazolin-5-yl)benzamide], the IC50 was in the range of 1 to 5 µM against HSD17B13 enzyme [1] and 1 to 10 µM at HSD17B13 enzyme [2].

Consider `COc1ccccc1CCn1cnc2cccc(NC(=O)c3ccc(P(=O)(O)O)c(F)c3)c2c1=O` [Example 23, (2-fluoro-4-((3-(2-methoxyphenethyl)-4-oxo-3,4-dihydroquinazolin-5-yl)carbamoyl)phenyl)phosphonic acid], for which the IC50 on HSD17B13 enzyme [1] and on HSD17B13 enzyme [2] was over 10 µM in each case.

With `COc1ccccc1CCn1cnc2cccc(NC(=O)c3ccc(O)c(Cl)c3)c2c1=O` [Example 1, 3-chloro-4-hydroxy-N-(3-(2-methoxyphenethyl)-4-oxo-3,4-dihydroquinazolin-5-yl)benzamide], the half-maximal inhibitory concentration (IC50) is at most 1 µM on HSD17B13 enzyme [1] and at most 0.1 µM on HSD17B13 enzyme [2].

With `COc1ccccc1CCn1cnc2c(c(NC(=O)c3ccc(O)c(F)c3)nn2C)c1=O` [Example 28, 3-fluoro-4-hydroxy-N-(5-(2-methoxyphenethyl)-1-methyl-4-oxo-4,5-dihydro-1H-pyrazolo[3,4-d]pyrimidin-3-yl)benzamide], the IC50 at HSD17B13 enzyme [1] is 5 to 10 µM; at HSD17B13 enzyme [2], 0.1 to 1 µM.

Take `COc1ccccc1CCn1cnc2sc(C)c(NC(=O)c3ccc(O)c(Cl)c3)c2c1=O` [Example 34, 3-chloro-4-hydroxy-N-(3-(2-methoxyphenethyl)-6-methyl-4-oxo-3,4-dihydrothieno[2,3-d]pyrimidin-5-yl)benzamide]: the IC50 against HSD17B13 enzyme [1] was at most 1 µM; against HSD17B13 enzyme [2] it was at most 0.1 µM.

As to `COc1ccccc1Cn1cnc2cccc(NC(=O)c3ccc(O)c(Cl)c3)c2c1=O` [Example 6, 3-chloro-4-hydroxy-N-(3-(2-methoxybenzyl)-4-oxo-3,4-dihydroquinazolin-5-yl)benzamide], the IC50 was at most 1 µM at HSD17B13 enzyme [1] and at most 0.1 µM at HSD17B13 enzyme [2].

Consider `CC(C)(C)CCn1cnc2cccc(NC(=O)c3ccc(S(=O)(=O)NC(=O)c4cccnc4)c(Cl)c3)c2c1=O` [Example 16, N-((2-chloro-4-((3-(3,3-dimethylbutyl)-4-oxo-3,4-dihydroquinazolin-5-yl)carbamoyl)phenyl)sulfonyl)nicotinamide], for which the figures for the IC50 on HSD17B13 enzyme [1] and on HSD17B13 enzyme [2] were 5 to 10 µM and 1 to 10 µM, respectively.

Consider `COc1ccccc1CCn1cnc2cccc(NC(=O)c3ccc(OCC(=O)O)c(F)c3)c2c1=O` [Example 4, 2-(2-fluoro-4-((3-(2-methoxyphenethyl)-4-oxo-3,4-dihydroquinazolin-5-yl)carbamoyl)phenoxy)acetic acid], for which the IC50 was over 10 µM at HSD17B13 enzyme [1] and 1 to 10 µM against HSD17B13 enzyme [2].

For `Cn1c(-c2cccnc2)nc2cccc(NC(=O)c3ccc(O)c(Cl)c3)c2c1=O` [Example 11, 3-chloro-4-hydroxy-N-(3-methyl-4-oxo-2-(pyridin-3-yl)-3,4-dihydroquinazolin-5-yl)benzamide], the results for the IC50 on HSD17B13 enzyme [1] and on HSD17B13 enzyme [2] were 1 to 5 µM and 0.1 to 1 µM, respectively.

For `O=C(Nc1cccc2ncn(Cc3ccncc3)c(=O)c12)c1ccc(O)c(F)c1` [Example 20, 3-fluoro-4-hydroxy-N-(4-oxo-3-(pyridin-4-ylmethyl)-3,4-dihydroquinazolin-5-yl)benzamide], the IC50 was over 10 µM on HSD17B13 enzyme [1] and 0.1 to 1 µM against HSD17B13 enzyme [2].

Regarding `COc1ccccc1CCn1cnc2cccc(NC(=O)c3ccc(C(=O)O)c(Cl)c3)c2c1=O` [Example 5, 2-chloro-4-((3-(2-methoxyphenethyl)-4-oxo-3,4-dihydroquinazolin-5-yl)carbamoyl)benzoic acid], the figures for the IC50 at HSD17B13 enzyme [1] and against HSD17B13 enzyme [2] were over 10 µM and 1 to 10 µM, respectively.

Consider `COc1ccccc1CCn1cnc2cccc(NC(=O)c3ccc(CC(=O)O)c(F)c3)c2c1=O` [Example 25, 2-(2-fluoro-4-((3-(2-methoxyphenethyl)-4-oxo-3,4-dihydroquinazolin-5-yl)carbamoyl)phenyl)acetic acid], for which the IC50 on HSD17B13 enzyme [1] is over 10 µM; against HSD17B13 enzyme [2], 1 to 10 µM.

The record behind these values is patent publication US20230286923A1 (INIPHARM, INC., priority 2020, published 2023).
